Measurements reported in patent US5874405A, “Heat shock protein peptides that share sequences with cyclic nucleotide phosphodiesterase and methods for modulating autoimmune central nervous system disease” (priority 1994, dated 1999).
Where no end group is shown, it is not given here.

Tested on: antibodies in cerebrospinal fluid (CSF) and sera
Experiment: Dot-blot analysis of CSF and sera for antibodies to CNP 173-184 peptide
Assay type: binding, human
Details: for patients whose CSF had antibodies to the peptide: data not shown
Experimental: Cerebrospinal fluid (CSF) and sera from MS patients and controls were analyzed for antibodies to the peptide derived from CNP isoform 2 (corresponding to amino acids 173-184) using dot-blot analyses. Samples from nine MS patients and five patients with other neurologic diseases (OND) were analyzed. The CNP 173-184 peptide coupled to BSA was adsorbed onto nitrocellulose membranes. Control wells received BSA alone. Two dilutions of paired spinal fluids and sera were added to the wells and the amount of antibody binding determined using peroxidase labeled anti-human IgG and an enhanced chemiluminescent assay (ECL Western Blotting Kit; Amersham International, Plc., Buckinghamshire, England). Using the public domain program, Image 1.40 (available from NIH), the integrated densities of the dots in the CNP 173-184 peptide wells and BSA wells were determined.

Sequence: LKKLKPGLEKDF [CNP 173-184 peptide]
- patients whose CSF had antibodies to the peptide (MS patients): 5/9
- patients whose CSF had antibodies to the peptide (OND patients): 0/5
- densities in peptide wells relative to BSA wells (MS CSF): approximately twofold
- number of patients with antibodies in sera (MS patients): 3
- number of patients with antibodies in sera (OND patients): 1
